Experiments:
Format in all cases: in vivo
HBV genotype C [1] = assay: Serum HBV DNA in HBV-infected PXB chimeric mouse model; settings: treatment arm of daily ETV only; FIG. 7
Procedure: (§1) The in vivo effect of the anti-HBV shmiR or shRNA-expressing AAV particles (as illustrated in FIG. 5) was determined in a PXB chimeric mouse model infected de novo with HBV inoculum. Inhibition of various HBV parameters was assessed: (i) expression of HBV viral transcripts, (ii) extracellular HbsAg, HBcAg and HBeAg, (iii) extracellular and intracellular HBV DNA, and (iv) formation of cccDNA.
(§2) Chimeric PXB mice (PXB-mice®) were obtained from PhoenixBio. All mice were housed individually at 23±5° C. and a humidity of 55±25% humidity, exposed to 12 hours-light/dark cycles and fed and watered ad libitum throughout the experiment. […] To determine baseline HBV infection, blood was taken from mice at days −28, −21, −14 and −7 (i.e., 0, 7, 14 and 21 days post inoculation, respectively), from which human albumin (h-Alb) concentration and serum concentrations of HBV DNA, HBsAg and HBeAg were determined. These permit detection of liver damage in test animals—no adverse reactions were detected.
Remaining whole blood was centrifuged to separate serum for HBV DNA quantification, HbsAg, HBcAg and HBeAg analysis. […] Synthetic HBV DNA was used to determine the concentration of the HBV DNA standard which was then used in quantification of the serum HBV DNA level. […]

HBV genotype C [2] = assay: Serum HBsAg in HBV-infected PXB chimeric mouse model; settings: PXB mice, 91 day study; FIG. 8
Procedure: as §1, §2
(§3) Serum HBsAg and HBeAg concentrations were determined using ChemiLuminescence ImmunoAssay (CLIA) e.g., as developed by Abbott ([…]® SYSTEM). […]
(§4) Following administration of the treatment (day 0), animals were then incubated for a further 91 days. […] HBeAg levels were measured every other week through Day 70 and then weekly thereafter until the conclusion of the 91 day experiment.

HBV genotype C [3] = assay: Serum HBeAg in HBV-infected PXB chimeric mouse model
Procedure: as §1, §2, §3, §4

HBV viral transcripts = assay: Liver HBV RNA levels by RT-QPCR in PXB chimeric mouse model; settings: FIG. 11
Excerpt: After the completion of blood sampling on Day 91, all the surviving animals were kept under isoflurane anesthesia and sacrificed by cardiac puncture and exsanguination. Once sacrificed, whole livers were harvested from mice and weighed. A slice of liver of 3 to 5 mm in thickness was obtained from left lateral lobe and cut into cubes approximately 1 to 2 mm on a side. These liver cubes were transferred into a labelled tube and immersed in RNAlater® solution (Ambion, Thermo Fisher Scientific Inc., Waltham, Mass., USA) as quickly as possible. The liver samples were incubated in ≥5 volumes of RNAlater® overnight at 4° C. to allow the solution to penetrate the tissue. After the incubation, the RNAlater® solution was removed and the liver pieces were stored at −80° C. for subsequent quantification of the various hepatic HBV DNA and RNAs as well as expression levels of recombinant AAV derived shRNA or shmiR RNAs.
Using primer/probe sets that are located near each of the RNAi-induced cleavage sites, the levels of HBV RNA was assessed by RT-QPCR (FIG. 11).

HBV genotype C [4] = assay: Intracellular (liver) HBV DNA by quantitative PCR in PXB chimeric mouse model; settings: entecavir or pegylated interferon alone; FIG. 12, left panel
HBV cccDNA = assay: Liver HBV cccDNA by real-time PCR in PXB chimeric mouse model; settings: ETV; FIG. 12, right panel
Procedure: HBV-infected mice treated with saline served as the negative controls. […] For the anti-HBV ddRNAi treatment groups, ssAAV8-HBV-shRNAx3-v1, scAAV8-HBV-shRNAx3-v1 or ssAAV8-HBV-shmiRx3-v1 was administered once at a dose of 2×10E+13 vg/kg by a low pressure tail vein injection at Day 0. Co-treated animals started daily ETV at Day 1 or were dosed the first time with PEG-IFN on Day 4
After the completion of blood sampling on Day 91, all the surviving animals were kept under isoflurane anesthesia and sacrificed by cardiac puncture and exsanguination. Once sacrificed, whole livers were harvested from mice and weighed. A slice of liver of 3 to 5 mm in thickness was obtained from left lateral lobe and cut into cubes approximately 1 to 2 mm on a side. […] After the incubation, the RNAlater® solution was removed and the liver pieces were stored at −80° C. for subsequent quantification of the various hepatic HBV DNA and RNAs as well as expression levels of recombinant AAV derived shRNA or shmiR RNAs.
To determine the level of hepatic HBV DNA following treatment, HBV DNA was extracted from frozen RNAlater®-preserved liver tissue using the DNeasy® Blood & Tissue Kits (Qiagen K. K., Tokyo, Japan). The DNA was dissolved in 200 μL nuclease-free water, after which the concentration of the DNA solution was determined using BioPhotometer 6131 (Eppendorf Co., Ltd., Tokyo, Japan). […]

C=C1[C@H](CO)[C@@H](O)C[C@@H]1n1cnc2c(=O)[nH]c(N)nc21 [entecavir]
drop in serum HBV DNA levels (HBV genotype C [1]): 2.63 log | drop in HBsAg levels (HBV genotype C [2]): 0.46 log | drop in HBeAg levels (HBV genotype C [3]; PXB mice, 91 day study, FIG. 9): 0.37 log | drop in HBeAg levels (HBV genotype C [3]; entecavir only): 0.37 log | reduction of HBV RNA levels / HBV transcripts (HBV viral transcripts; monotherapy, through 13 weeks of treatment, RT-QPCR): ~50% | HBV RNA levels (liver) (HBV viral transcripts; transcripts corresponding to shmiR-6, shmiR-15 and shmiR-12): only modestly reduced | drop in intracellular DNA levels (HBV genotype C [4]): 2 logs | reduction of cccDNA (HBV cccDNA): slightly more than a one log reduction

— patent publication US11535851B2, “Reagents for treatment of hepatitis B virus (HBV) infection and use thereof” (priority 2016, dated 2022)
